Changes are numbered by the printed parent chain. Where “and” joins values, the source holds several entries; their conditions need not be identical. Equal entries are not always repeated.
Legend:
ALK2 [1] = biological target: T1, ALK2 (Mus musculus, UniProt P37172); assay: HTRF pSMAD1 cell-based ALK2 assay (C2C12 cells, BMP6 as agonist)
T1 construct: The C2C12 cell line was selected for the measurement of ALK2 activity using BMP6 as the agonist; host or cells: C2C12
T1 sequence (P37172 21-509): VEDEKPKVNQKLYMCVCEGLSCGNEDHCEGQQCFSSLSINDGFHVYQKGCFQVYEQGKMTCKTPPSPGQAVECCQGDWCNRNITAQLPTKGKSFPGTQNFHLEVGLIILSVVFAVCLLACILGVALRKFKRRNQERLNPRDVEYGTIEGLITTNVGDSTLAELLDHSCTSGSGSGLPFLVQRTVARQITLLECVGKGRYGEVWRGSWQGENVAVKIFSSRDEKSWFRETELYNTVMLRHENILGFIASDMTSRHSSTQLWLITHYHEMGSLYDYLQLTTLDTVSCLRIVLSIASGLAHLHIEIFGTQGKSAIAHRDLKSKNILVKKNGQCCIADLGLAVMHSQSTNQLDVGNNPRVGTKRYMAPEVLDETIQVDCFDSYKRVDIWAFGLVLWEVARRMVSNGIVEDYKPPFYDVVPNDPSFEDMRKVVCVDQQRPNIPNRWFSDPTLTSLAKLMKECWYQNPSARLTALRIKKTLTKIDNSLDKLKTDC
In short: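 Cells pre-starved, plated in 0.1% FBS medium for 4 h, compound added for 30 min, then stimulated 30 min with BMP9 (BAOEC) or BMP6 (C2C12). Phospho-SMAD1 measured by HTRF after overnight room-temperature detection incubation.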

ALK3 = ALK3 (Homo sapiens, UniProt P36894); assay: TR-FRET enzymatic ALK kinase assay, ALK3
Sequence of ALK3 (P36894 24-532): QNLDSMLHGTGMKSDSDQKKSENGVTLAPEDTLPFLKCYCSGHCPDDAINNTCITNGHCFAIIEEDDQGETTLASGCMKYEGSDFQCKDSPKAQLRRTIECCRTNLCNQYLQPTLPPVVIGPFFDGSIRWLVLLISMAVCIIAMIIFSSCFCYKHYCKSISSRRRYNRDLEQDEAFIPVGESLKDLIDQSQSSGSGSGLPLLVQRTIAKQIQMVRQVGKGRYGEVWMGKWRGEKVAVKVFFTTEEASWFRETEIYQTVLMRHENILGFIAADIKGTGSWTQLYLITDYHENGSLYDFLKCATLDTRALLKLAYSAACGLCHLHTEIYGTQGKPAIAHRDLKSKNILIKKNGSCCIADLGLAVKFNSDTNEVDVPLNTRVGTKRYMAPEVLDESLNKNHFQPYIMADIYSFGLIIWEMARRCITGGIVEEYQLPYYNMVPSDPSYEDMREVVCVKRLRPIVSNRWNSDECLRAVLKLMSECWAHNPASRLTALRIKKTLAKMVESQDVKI
Method: (§2) Briefly, the ALKs enzymatic assay was initiated by dispense 2.5 μl enzyme in 1× kinase reaction buffer. The assay plate was then added with compounds followed by incubation at room temperature for 10 minutes. Then 2.5 μl/well substrate was added.

ALK1 [2] = biological target: T2, ALK1 (Bos taurus, UniProt A4FUX2); assay: HTRF pSMAD1 cell-based ALK1 assay (BAOEC cells, BMP9 as agonist); parameters: species or system Bovine
T2 construct: The BAOEC cell line was employed for the measurement of ALK1 activity using BMP9 as the agonist; host or cells: BAOEC (bovine aortic endothelial cells)
T2 sequence (A4FUX2 23-503): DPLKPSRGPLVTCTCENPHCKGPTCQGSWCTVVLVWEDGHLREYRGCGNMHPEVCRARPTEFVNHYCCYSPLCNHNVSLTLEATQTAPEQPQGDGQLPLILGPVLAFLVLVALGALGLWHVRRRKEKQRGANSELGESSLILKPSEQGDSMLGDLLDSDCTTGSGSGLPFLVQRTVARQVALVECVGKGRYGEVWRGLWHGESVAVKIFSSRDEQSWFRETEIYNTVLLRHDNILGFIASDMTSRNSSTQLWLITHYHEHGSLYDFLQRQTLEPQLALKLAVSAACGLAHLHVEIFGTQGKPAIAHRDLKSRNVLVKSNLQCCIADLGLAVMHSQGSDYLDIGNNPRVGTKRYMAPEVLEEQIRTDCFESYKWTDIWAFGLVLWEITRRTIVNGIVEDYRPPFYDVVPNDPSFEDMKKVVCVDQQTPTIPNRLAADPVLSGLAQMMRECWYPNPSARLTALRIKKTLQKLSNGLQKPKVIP
Method: 2. HTRF Cell-Based ALK1 and ALK2 Assays in 384-Well Plate Format We have developed a cell based ALK1 kinase assay and a cell-based ALK2 assay. The BAOEC cell line was employed for the measurement of ALK1 activity using BMP9 as the agonist. The C2C12 cell line was selected for the measurement of ALK2 activity using BMP6 as the agonist. The kinase specificity was defined by the specific cell line and agonist. The kinase activity was determined by the status of SMD 1/5/8 phosphorylation stimulated by the agonist.
HyClone Fetal Bovine Serum was obtained from GE healthcare life sciences (Logan, Utah). BMP6 and BMP9 were purchased from R&D System. […] The compound plates and the white solid MB assay plates were purchased from Greiner Bio-one (Monroe, N.C.).
(§1) HTRF optimization experiments were performed in 384 well plate format. […] Pre-starved cells were then plated in 384 well plate in the starvation medium (containing in 0.1% FBS). After 4 hours, compounds were added to the assay plate and incubated for 30 minutes. The assay plate was then added with BMP6 for C2C12 cells or BMP9 for BAOEC cells and incubated for 30 minutes.
HTRF assay was performed to measure the status of SMAD 1 phosphorylation after stimulated with the agonist (Table 3). This HTRF phospho SMAD1 cell assay was developed and optimized for the homogenous detection of phospho SMAD 1 levels in cells. […] The plate was incubated at room temperature for overnight.

ALK2 [3] = biological target: T3, ALK2 (Homo sapiens, UniProt Q04771); assay: TR-FRET enzymatic ALK kinase assay, ALK2
T3 sequence (Q04771 21-509): T1 sequence (P37172 21-509) with V1M, Q10P, I121L, E162D, S310P
Method: as §2

ALK4 = biological target: T4, ALK4 (Homo sapiens, UniProt P36896); assay: TR-FRET enzymatic ALK kinase assay, ALK4
T4 sequence (P36896 24-505): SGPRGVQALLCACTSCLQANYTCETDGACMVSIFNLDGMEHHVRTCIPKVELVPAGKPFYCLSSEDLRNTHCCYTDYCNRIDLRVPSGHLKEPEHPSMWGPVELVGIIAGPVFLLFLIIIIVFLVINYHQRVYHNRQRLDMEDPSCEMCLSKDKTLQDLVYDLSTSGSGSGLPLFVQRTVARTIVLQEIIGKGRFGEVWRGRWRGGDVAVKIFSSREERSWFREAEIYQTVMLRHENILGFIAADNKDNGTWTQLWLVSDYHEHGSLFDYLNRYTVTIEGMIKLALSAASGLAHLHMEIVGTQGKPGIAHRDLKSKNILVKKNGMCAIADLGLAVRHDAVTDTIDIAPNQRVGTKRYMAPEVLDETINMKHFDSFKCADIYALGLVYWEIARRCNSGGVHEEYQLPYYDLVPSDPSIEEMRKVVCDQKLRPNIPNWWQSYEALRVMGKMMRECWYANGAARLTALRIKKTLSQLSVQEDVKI
Method: as §2

ALK5 = biological target: T5, ALK5 (Homo sapiens, UniProt P36897); assay: TR-FRET enzymatic ALK kinase assay, ALK5
T5 sequence (P36897 34-503): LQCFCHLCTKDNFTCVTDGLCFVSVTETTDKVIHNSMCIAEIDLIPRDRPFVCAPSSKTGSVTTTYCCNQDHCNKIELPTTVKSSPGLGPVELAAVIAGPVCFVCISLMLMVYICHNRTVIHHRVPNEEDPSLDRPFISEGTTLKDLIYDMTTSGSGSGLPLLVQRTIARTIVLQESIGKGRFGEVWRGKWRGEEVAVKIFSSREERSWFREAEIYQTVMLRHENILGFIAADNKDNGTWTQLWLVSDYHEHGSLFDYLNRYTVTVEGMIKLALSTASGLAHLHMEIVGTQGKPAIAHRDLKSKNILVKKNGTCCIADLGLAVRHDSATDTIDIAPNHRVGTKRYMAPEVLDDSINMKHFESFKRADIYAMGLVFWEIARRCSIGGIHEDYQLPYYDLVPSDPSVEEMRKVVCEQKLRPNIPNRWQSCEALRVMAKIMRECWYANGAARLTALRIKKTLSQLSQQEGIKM
Method: Six ALK kinase enzyme assays were developed for determination of compound activities on ALK1, ALK2, ALK3, ALK4, ALK5 and ALK6.
as §2

ALK1 [4] = biological target: ALK1 (Homo sapiens, UniProt P37023); assay: TR-FRET enzymatic ALK kinase assay, ALK1
Sequence of ALK1 (Homo sapiens, UniProt P37023) (P37023 22-503): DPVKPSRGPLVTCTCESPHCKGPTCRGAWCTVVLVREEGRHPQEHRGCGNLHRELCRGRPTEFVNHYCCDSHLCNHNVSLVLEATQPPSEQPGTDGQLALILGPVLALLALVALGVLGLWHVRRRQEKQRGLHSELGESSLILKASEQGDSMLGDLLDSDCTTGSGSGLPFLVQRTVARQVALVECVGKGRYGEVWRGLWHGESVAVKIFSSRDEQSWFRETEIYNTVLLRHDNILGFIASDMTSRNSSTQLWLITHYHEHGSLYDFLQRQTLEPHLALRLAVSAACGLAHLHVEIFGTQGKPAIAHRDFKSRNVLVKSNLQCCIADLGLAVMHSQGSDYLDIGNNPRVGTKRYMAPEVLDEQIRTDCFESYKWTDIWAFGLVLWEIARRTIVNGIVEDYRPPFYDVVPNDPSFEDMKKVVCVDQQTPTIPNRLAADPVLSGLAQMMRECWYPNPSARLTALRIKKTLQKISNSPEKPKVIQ
Method: as §2

ALK6 = ALK6 (Homo sapiens, UniProt O00238); assay: TR-FRET enzymatic ALK kinase assay, ALK6
Sequence of ALK6 (O00238 14-502): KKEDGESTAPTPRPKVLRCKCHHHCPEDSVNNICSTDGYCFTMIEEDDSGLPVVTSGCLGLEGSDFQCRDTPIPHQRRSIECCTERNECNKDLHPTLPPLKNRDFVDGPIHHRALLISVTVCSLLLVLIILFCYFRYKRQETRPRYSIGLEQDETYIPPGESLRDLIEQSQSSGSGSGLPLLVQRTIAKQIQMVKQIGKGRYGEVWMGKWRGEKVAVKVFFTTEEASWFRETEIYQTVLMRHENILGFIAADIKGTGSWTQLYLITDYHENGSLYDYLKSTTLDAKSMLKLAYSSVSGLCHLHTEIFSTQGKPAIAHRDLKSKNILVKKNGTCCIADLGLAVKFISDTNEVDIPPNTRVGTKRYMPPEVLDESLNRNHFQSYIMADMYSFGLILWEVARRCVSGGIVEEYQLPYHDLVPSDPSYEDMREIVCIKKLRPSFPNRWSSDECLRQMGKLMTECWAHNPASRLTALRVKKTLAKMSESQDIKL
Method: as §2

BMP4 = BMP4 HTRF assay; type: cell-based
[5] = Cell-based assay, TGFb1 (Cell IC50)
ALK2 [6] = biological target: T1, ALK2; assay: In-cell Western ALK2 assay (C2C12 cells, BMP6 as agonist); type: cell-based; conditions: read-out: BMP6 ICW
Excerpt: 3. In-Cell Western ALK1 and ALK2 Assays in 384-Well Plate Format.
We also optimized cell-based In-cell Western assays for measurements of ALK1 and ALK2 activities that were used to determine compound activities in these two kinases. The cell lines and agonists used were same as described in above cell-based HTRF ALK1 and ALK2 assays. The initial cell plating and compound treatment were also same. The main difference is the detection of phosphorylation status of SMAD1. In t-cell Western assay, the cells were fixed and phosphorylation status of SMAD1 was detected by the ELISA instead of using the HTRF assay kit in above assay.
HyClone Fetal Bovine Serum was obtained from GE healthcare life sciences (Logan, Utah). BMP6 and BMP9 were purchased from R&D System (R&D). Anti-P-SMAD 1/5/8 rabbit mAb and anti-rabbit IgG, HRP-Linked antibody were purchased from Cell Signaling Technology (Danvers, Mass.). BioFX Chemiluminescent Ultra-Sensitive HRP Microwell Substrate ECL Reagent was obtained from SurModics (Edina, Minn.). The compound plates and the white solid MB assay plates were from Greiner Bio-one (Monroe, N.C.).
as §1, with “Similarly as described in above HTRF” for “HTRF”, “cell-based assay, this assay was” for “optimization experiments were”, “compound dilutions in DMSO” for “compounds”
The cells were washed in the plate washer with PBS and blocked with 2% BSA in PBS for 1 h at room temperature on the rotator. After removing the blocking reagent, the cells were incubated with the anti-p-SMAD1 antibody in 2% BSA in PBS for overnight at 4° C. on rotator. The cells were washed with PBS in the plate washer and incubated with HRP conjugated second antibody in 2% BSA in PBS for 1 hour at room temperature. After a cell wash with PBS, ECL detection reagent was added and the plate was read in the luminesce mode in the ViewLux plate reader.

Row | SMILES | IC50 (ALK2 [1]; HTRF assay, BMP6 as agonist, C2C12 cells, read-out: BMP6 HTRF) [nM] | IC50 (ALK2 [1]; cell-based assay, BMP6, read-out: Cell IC50 BMP6) [nM] | IC50 (ALK3) [nM] | IC50 (ALK1 [2]) [nM] | IC50 (ALK2 [3]) [nM] | IC50 (ALK4) [nM] | IC50 (ALK5) [nM] | IC50 (ALK1 [4]) [nM] | IC50 (ALK6) [nM] | IC50 (BMP4) [nM] | IC50 [5] [nM] | IC50 (ALK2 [6])
1 | C[C@@H]1CNC[C@H](C)N1c1ccc(-c2cnc3c(-c4ccc(CO)c5ccccc45)cnn3c2)cc1 [Compound 22, (4-(6-(4-((2R,6S)-2,6-dimethylpiperazin-1-yl)phenyl)pyrazolo[1,5-a]pyrimidin-3-yl)naphthalen-1-yl)methanol] | 47 | 2 | 34 | 33 | 9.7 | 1360 | 4660 | 4 | 647 | 820 | 243 | 
2 | CS(=O)(=O)c1cccc(-c2cnn3cc(-c4ccc(C5CCNC5)cc4)cnc23)c1 (stereo not shown) [Compound 129, 3-(3-(methylsulfonyl)phenyl)-6-(4-(pyrrolidin-3-yl)phenyl)pyrazolo[1,5-a]pyrimidine] |  |  | > 10000 |  | 63 | > 10000 | > 10000 | 490 | > 10000 |  |  | 580 nM and 152 nM
3 | CS(=O)(=O)c1cccc(-c2cnn3cc(-c4ccc(C5CCCCN5)cc4)cnc23)c1 (stereo not shown) [Compound 137, 3-(3-(methylsulfonyl)phenyl)-6-(4-(piperidin-2-yl)phenyl)pyrazolo[1,5-a]pyrimidine] |  |  | > 10000 |  | 75 | > 10000 | > 10000 | 250 | > 10000 |  |  | 150 nM and 250 nM
